Consider 2 compounds from US20200341000A1, “METHOD OF SCREENING COMPOUNDS FOR TREATING CNS DISORDERS” (SAGE THERAPEUTICS, INC., priority 2017, published 2020).

For test [1], the system named is tonic current in DGGCs (β3 S408/9A mutant). The experiment in a line: Sustained effect on tonic current in DGGCs from S408/9A mice. The test is classed as cell-based. Conditions: 100 nM, slices from S408/9A mice.
Test [2] has as its system plasma membrane GABAARs containing the α4 and β3 subunits (S408/9A mutant). The test can be described thus: Biotinylation, surface/total GABAAR subunits in hippocampal slices of S408/9A mice. The test is classed as cell-based. The conditions noted are these: 100 nM, 20 min. Here is the method:
Consistent with the examples above, hippocampal slices from WT and S408/9A mice were treated for 20 min with 100 nM SGE-516 or vehicle (Con) and subjected to biotinylation followed by immunoblotting with β3 and α4 subunit antibodies. The ratio of surface/total (S/T) immunoreactivity was then normalized to levels seen in control (100%).

The subject of test [3] is sIPSCs in dentate gyms granule cells (DGGCs). The experiment in a line: sIPSCs in DGGCs after 15 min exposure and >30 min wash. Type of test: cell-based, mice. As for the experimental part: For tonic current measurements, an all-points histogram was plotted for a 10 s period before and during 100 μM picrotoxin application, once the response reached a plateau level. Recordings with unstable baselines were discarded. Fitting the histogram with a Gaussian distribution gave the mean baseline current amplitude and the difference between the amplitudes before and during picrotoxin was considered to be the tonic current. The negative section of the all-points histogram which corresponds to the inward IPSCs was not fitted with a Gaussian distribution (Kretschmannova et al., 2013; Nusser and Mody, 2002). Series resistance and whole-cell capacitance were continually monitored and compensated throughout the course of the experiment. Recordings were eliminated from data analysis if series resistance increased by >20%. Spontaneous inhibitory post-synaptic currents (sIPSCs) were analyzed using the mini-analysis software (version 5.6.4; Synaptosoft, Decatur, Ga.). Minimum threshold detection was set to 3 times the value of baseline noise signal. […] Only recordings with a minimum of 200 events fitting these criteria were analyzed. sIPSCs amplitude, and frequency from each experimental condition was pooled and expressed as mean±SEM. To measure sIPSC decay, 100 consecutive events were averaged and the decay was fitted to a double exponential and the weighted decay constant (tw) was determined. […]

Test [4] deals with GABA-evoked currents in GT1-7 cells. The experiment in a line: Patch-clamp of GABA-induced currents in GT1-7 cells, compound in the pipette electrolyte. Conditions: 100 nM in electrolyte, GABA EC20, 20 min time course. Type of test: cell-based. As for the experimental part: Patch-clamp recordings were made from GT1-7 cells. The magnitude of the GABA-induced currents (IGABA) at EC20 agonists concentration were then measured, in the presence of control electrolyte or that supplemented with 100 nM ALLO, or 100 nM ORG OD 02-0 over a time course of 20 min.
A general note: In patch-clamp work, channel activity is measured electrically.

In the case of `C[C@@]1(O)CC[C@H]2[C@H](CC[C@@H]3[C@@H]2CC[C@]2(C)[C@@H](C(=O)Cn4nccn4)CC[C@@H]32)C1` [SGE-516], the “tonic current in DGGCs after incubation and extensive washout” value in test [1] is given as “did not modify”. Further, in test [2], the “increase of plasma membrane levels of GABAARs containing α4 and β3 subunits” value is listed as “not seen”. Also, the “enhancement of sIPSC amplitude with GFX” value in test [3] (100 nM SGE-516 plus GFX) is “significantly reduced”. Moreover, the “sIPSC amplitude after exposure and wash” value in test [3] (100 nM, 15 min, washed >30 min) is “significantly enhanced”.

Turning to `CC(=O)[C@H]1CC[C@H]2[C@@H]3CC[C@H]4C[C@H](O)CC[C@]4(C)[C@H]3CC[C@]12C` [ALLO, Allopregnanolone], the “GABA-evoked currents (IGABA) over time” value in test [4] is given as “sustained increases”.
